“Also recorded” adds a separate entry of the source.
Assays:
[1] = tested on: MFM D1+D2 score in SMA patients; assay: Longitudinal kinetic-pharmacodynamic (KPD) exposure-response analysis and simulations on Phase 2 PK and MFM D1+D2 data; set-up: species or system human
Text: The pharmacokinetics (PK) and efficacy data from the herewith referred clinical trial study were used to investigate the relationship between olesoxime pharmacokinetic exposure (i.e., average trough concentration Caverage) and the primary efficacy outcome (i.e.: MFM D1+D2 score). A longitudinal kinetic-pharmacodynamic (KPD) approach was applied [Jacqmin et al., 2007]. In the placebo group the progression of the disease over time was best described by a linear function (slope of −0.0201 unit/week with relative standard error of 27%). […] (Data on file).
Simulations were conducted by using this exposure-response function and its associated uncertainty.

[2] = tested on: SMNF7/F7; NSE-Cre mice (SMA transgenic mice); assay: Survival and body weight in transgenic mouse model of SMA; assay type: in vivo; details: for mice still alive at 40 days: Conclusion section (vehicle 15%); for animals still alive after 40 days: Results section (vehicle 15%)
Text: Deletion of the smn gene is lethal in mice (early embryonic lethality). Mutant mice with deletion of smn exon7 restricted to neurons (NSE-Cre; SMNF7/F7, referred to here as SMA transgenic mice) are viable and display a phenotype similar to that described in human patients suffering from the severe types of spinal muscular atrophy (Frugier T., Tiziano F D et al. Hum Mol Genet. 2000, 9, 849-858.)
A pre-clinical study has been carried out on transgenic mouse model of SMA in the severe modelSMN^F7/F7; NSE-Cre with Olesoxime to test for signs of possible efficacy to treats SMA patients.
Endpoint scores included survival (daily observation), body weight (animals were weighed 3 times/week).
Olesoxime (powder) was mixed with Cremophore EL (SIGMA C5135), absolute ethanol (CARLO ERBA RPE 414571) and DMSO (ALLDRICH 27685-5) ([…], respective % of the final volume). After complete dissolution, PBS (phosphate buffered saline) was added (85% of the final volume). Solutions were prepared in volumes sufficient for 3 days; vehicle placebo consisted in the same mixture of excipients without the active principle. Daily treatment (subcutaneous injections, 10 ml/kg) started from P21 to death. Effected mice were killed by cervical dislocation when they became unable to feed, according to ethical considerations or around 45 days for control mice. Experiments were performed blind.
“log Rank”, also called “Mantel-Haenszel” was the statistic test being used to compare the two survival curves. It is a type “Khi2” test that was already available in the library “survival” from R. software (http://lib.stat.cmu.edu/R/CRAN).
The test was applied simultaneously on the 3 groups of mice and for all five stages.
All the mice which died before day 26 were removed from the study. There were 8 in total.

[3] = tested on: patients aged 3-25 years with type 2 or non-ambulatory type 3 SMA; assay: Randomized, double-blind, placebo-controlled Phase 2 study (NCT01302600) of olesoxime; assay type: in vivo, human; details: 100 mg/ml oral liquid suspension, 10 mg/kg per day
Description: A randomized double blind, placebo-controlled, phase 2 study on olesoxime (NTC01302600) was performed on SMA type II and type III patients aged 3 to 25 years.
A randomized, double-blind, placebo-controlled, Phase 2 study (NCT01302600) was performed in 22 secondary care centres in Belgium, France, Germany, Italy, Netherlands, Poland and the UK. Safety and efficacy of olesoxime (TRO19622/RG6083) were assessed in patients aged 3-25 years with type 2 or non-ambulatory type 3 SMA confirmed by weakness and hypotonia, genetic diagnosis, Motor Function Measure (MFM) domains 1 and 2 (D1+D2) relative score (percentage of the maximum sum)≥15% and Hammersmith Functional Motor Scale (HFMS) score at baseline≥3 (non-ambulant≤38). […]
MFM is a validated quantitative scale allowing measurement of the functional motor abilities of an individual affected by a neuromuscular disease, regardless of the diagnosis and the extent of motor deficiencies (Vuillerot et al. Arch Phys Med Rehabil 2013; 94(8): 1555-61). […] Each item is scored on a 4-point (0-3) Likert type scale, where each option contains a clear indication of the level to which the patient has achieved the functional task and higher scores reflect better functional ability. […]
A total score, in addition to the three dimensions, can be calculated, with all scores expressed as a percentage of the maximum possible sum of the item scores. […]

CC(C)CCC[C@@H](C)[C@H]1CC[C@H]2[C@@H]3CCC4=CC(=NO)CC[C@]4(C)[C@H]3CC[C@]12C [olesoxime, Cholest-4-en-3-one oxime]
slope of linear exposure-response relationship (average trough concentration vs MFM D1+D2 score) ([1]; KPD model, relative standard error of 36%): 0.291 unit/ng/mL | plateau of effect in exposure-response relationship ([1]; at the dose of 10 mg): did not reach a plateau | mice still alive at 40 days ([2]; 10 mg/kg daily s.c.): 26% | animals still alive after 40 days ([2]; 10 mg/kg daily s.c.): 25% | mice still alive at 40 days ([2]; 30 mg/kg daily s.c.): 50% | animals still alive after 40 days ([2]; 30 mg/kg daily s.c.): 45% | life span / survival ([2]; 30 mg/kg/day s.c. from day 21 to death, log rank test p<0.05 vs vehicle): significant increase in life span; also recorded: longer life span; also recorded: Improves Survival | body weight ([2]; 10 or 30 mg/kg daily s.c. vs vehicle): no difference in body weight | motor function ([3]; SMA type II and III patients): demonstrated potential to maintain motor function | tolerability ([3]; SMA type II and III patients aged 3 to 25 years): well tolerated

From patent US20190247405A1, “TREATMENT OF SMA” (Hoffmann-La Roche Inc., priority 2016, published 2019)
